Some results are limits rather than exact numbers.

Common to all, as to type: cell-based
The test system of one data set is BxPC-3 cells. In words: Western blot of pimonidazole-labeled cells. The settings on record: 48 h, 10 μM, printed 'until after 1% pO2'. The procedure: Cells were seeded at a density of 200,000 cells per well in media [2 mL, RPMI supplemented with 5% heat-inactivated human serum (Sigma), penicillin (100 units/mL), and streptomycin (0.1 mg/mL)] in 6-well plates. Cells were incubated at 37° C. under ambient atmosphere with 5% CO2. After 24 hours, the media was aspirated and replaced with media [1 mL, RPMI supplemented with 5% heat-inactivated HS, penicillin (100 units/mL), and streptomycin (0.1 mg/mL)] containing pimonidazole (1 μL, 10 mM in water; 10 μM final concentration). Plates were then incubated at 37° C. under ambient (20% pO2) or oxygenated conditions (5%, 1%, or 0.1% pO2) with 5% CO2 for 48 hours. The oxygenated conditions were maintained using a hypoxia chamber (ProOx C21, Biospherix) in a cell culture incubator. After 48 hours, the media was aspirated, and the cells were washed with PBS (1 mL). PBS (1 mL) was then added to each well and the cells were scraped off with a cell scraper. […] The protein concentration was then determined by BCA assay following the manufacturer's protocol (Pierce). […] The dried pellet was then resuspended in an SDS solution (50 μL, 1% SDS in 50 mM Tris, pH 8.0), and the protein concentration was determined by BCA assay. […] Blots were imaged using a fluorescence scanner (Odyssey CLx, LI-COR Biosciences) and quantified by ImageJ.
In general terms: In western blotting, separated proteins are transferred to a membrane and probed.

For the next data set, the system named is A431 cells. Description: Staurosporine release by A431 cells. The note with it: 7.5×10^6 A431 cells, 100 μM compound, serum free RPMI, HPLC. The protocol:
Sterilized 2 mL HPLC vials were each charged with a suspension of 7.5×10^6 cells in RPMI (1 mL) and sealed with a cap containing a septum. The vials were charged with only RPMI (1 mL) in the no cell controls. A stock solution of staurosporine enamine N-oxide 37 (10 μL, 10 mM in ethanol; 100 μM final concentration) was then added to each vial. Septa were pierced with an open 22-gauge needle for normoxic conditions. Hypoxic conditions were maintained using nitrogen lines connected to a vacuum gas manifold. The vials were maintained at 37° C. in a water bath and shaken every 15 minutes. At different time points (0, 1, 2, 4, and 8 hours), an aliquot of the cell suspension (100 μL) was removed from each vial and immediately added to acetonitrile (100 μL) containing p-nitrophenol (10 μM) as an internal standard. Quenched samples were then cooled to −20° C. for 1 hour and centrifuged at 10,000×g for 5 minutes at 4° C. The supernatant was collected and analyzed by HPLC (C18 column, 4.6×250 mm, 5 μm particle size, 1 mL/minute flow rate, eluent: gradient 0→20% MeCN/H2O+0.1% TFA (1 minute), gradient 20→40% MeCN/H2O+0.1% TFA (7 minutes), gradient 40→100% MeCN/H2O+0.1% TFA (3 minutes)). Staurosporine was quantified using its absorbance at 280 nm.

Another data set relates to A431 or H460 cells. Description: Staurosporine enamine N-oxide cell viability studies (MTT). The note with it: compared with AQ4N. The protocol:
A431 or H460 cells were seeded at a density of 12,000-13,000 cells per well in media [100 μL, RPMI supplemented with 5% heat-inactivated human serum (Sigma), penicillin (100 units/mL), and streptomycin (0.1 mg/mL)] in clear 96-well plates. PBS (100 μL) was added to the edge wells. The cells were incubated at 37° C. under ambient atmosphere with 5% CO2. After 24 hours, the media was aspirated and replaced with media [50 μL, RPMI supplemented with 5% HS, penicillin (100 units/mL), and streptomycin (0.1 mg/mL)] containing the staurosporine derivative of interest. For A431 cells, staurosporine or staurosporine derivative treatment concentrations started at 50 μM and were serially diluted 4-fold across nine wells. For H460 cells, staurosporine or staurosporine derivative treatment concentrations started at 100 μM and were serially diluted 4-fold across nine wells. […] After 48 hours, the media was aspirated, the wells were washed once with PBS (130 μL), and the cell viability was determined using the MTT assay. […] The absorbance at 570 nm was measured using a microplate reader (Clariostar Plus, BMG Labtech).
These studies were performed as previously reported (Manley et al., J. Pharmacol. Exp. Ther. 344:368-377 (2013)). […] After 72 hours, cell viability was determined using the MTT assay. […] The absorbance at 570 nm was then measured using a microplate reader (Clariostar Plus, BMG Labtech).

For the compound `O=[N+]([O-])c1nccn1CC(O)CN1CCCCC1` (stereo not drawn) [Pimonidazole], the “oxygen tension at which apparent half maximal labeling capacity (0.1% pO2) is reached” value with BxPC-3 cells is below 1 % pO2.

With `CC[N+]([O-])(/C=C/COC(=O)N1Cc2c(c3c4ccccc4n4c3c3c2c2ccccc2n3[C@@]2(C)O[C@@H]4C[C@@H](NC)[C@H]2OC)C1=O)CC` [compound 37, N,N-diethyl enamine N-oxide staurosporine], in the data set on A431 cells, the “rate of conversion to staurosporine under hypoxic conditions relative to normoxic” value is given as around 4 fold. Besides, the “hypoxic to normoxic cytotoxicity ratios (HCR)” value in the data set on A431 or H460 cells was “compare favorably with and are complementary to those of AQ4N”.

The values are drawn from patent US20240208898A1, “ENAMINE N-OXIDES: SYNTHESIS AND APPLICATION TO HYPOXIA-RESPONSIVE PRODRUGS AND IMAGING AGENTS” (DANA-FARBER CANCER INSTITUTE, INC., priority 2021, published 2024).
